Test results reported in patent publication EP1383793B1 (priority 2000, dated 2001).
pKd: −log10 of the molar value. Read-outs that look alike come from different tables or passages of the source. Residues, ends and D or L forms follow the SMILES beside them. No end group written: not given here. *: point of attachment. Biotin = O=C1N[C@H]2[C@H](CS[C@H]2CCCCC(=O)*)N1

Experiments:
[1] = target: T1, human insulin receptor (HIR) (Homo sapiens, UniProt P06213); assay: 125I-insulin competition binding assay on solubilised purified receptor
T1 construct: made in house
T1 sequence (P06213 28-758 limits assumed): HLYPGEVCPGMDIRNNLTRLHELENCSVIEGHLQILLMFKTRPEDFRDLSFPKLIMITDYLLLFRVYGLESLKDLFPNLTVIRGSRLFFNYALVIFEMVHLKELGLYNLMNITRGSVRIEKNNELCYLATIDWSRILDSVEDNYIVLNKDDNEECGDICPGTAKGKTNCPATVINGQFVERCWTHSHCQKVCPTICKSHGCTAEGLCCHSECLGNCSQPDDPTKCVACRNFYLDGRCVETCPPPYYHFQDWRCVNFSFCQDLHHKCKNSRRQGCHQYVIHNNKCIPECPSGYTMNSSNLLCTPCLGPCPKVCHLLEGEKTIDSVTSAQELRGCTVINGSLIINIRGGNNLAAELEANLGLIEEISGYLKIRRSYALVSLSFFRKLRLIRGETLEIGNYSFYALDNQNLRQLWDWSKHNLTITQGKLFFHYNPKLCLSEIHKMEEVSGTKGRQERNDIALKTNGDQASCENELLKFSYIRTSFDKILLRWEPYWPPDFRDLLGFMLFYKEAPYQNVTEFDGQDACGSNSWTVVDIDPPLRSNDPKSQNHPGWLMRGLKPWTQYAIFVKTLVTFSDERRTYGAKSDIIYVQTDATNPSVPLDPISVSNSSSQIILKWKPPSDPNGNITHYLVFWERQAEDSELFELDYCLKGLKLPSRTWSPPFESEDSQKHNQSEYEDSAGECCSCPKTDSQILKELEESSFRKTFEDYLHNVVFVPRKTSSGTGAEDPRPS
T1 sequence (P06213 763-1382 limits assumed): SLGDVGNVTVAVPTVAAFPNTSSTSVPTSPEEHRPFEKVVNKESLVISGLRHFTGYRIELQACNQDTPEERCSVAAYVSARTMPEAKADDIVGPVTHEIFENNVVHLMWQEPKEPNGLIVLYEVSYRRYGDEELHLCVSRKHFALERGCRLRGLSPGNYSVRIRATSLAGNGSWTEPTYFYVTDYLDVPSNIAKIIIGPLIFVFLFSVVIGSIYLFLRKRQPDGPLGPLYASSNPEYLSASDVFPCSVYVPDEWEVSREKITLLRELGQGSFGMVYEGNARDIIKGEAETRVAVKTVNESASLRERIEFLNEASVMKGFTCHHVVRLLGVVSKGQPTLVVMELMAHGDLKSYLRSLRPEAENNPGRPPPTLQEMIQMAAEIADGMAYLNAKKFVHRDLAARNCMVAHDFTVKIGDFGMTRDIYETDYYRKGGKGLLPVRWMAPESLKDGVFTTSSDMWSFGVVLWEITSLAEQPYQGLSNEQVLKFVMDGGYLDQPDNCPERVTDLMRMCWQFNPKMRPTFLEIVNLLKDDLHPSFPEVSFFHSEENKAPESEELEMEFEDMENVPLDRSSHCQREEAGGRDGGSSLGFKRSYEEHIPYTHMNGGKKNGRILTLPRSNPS

adipocytes = assay: 3H-glucose uptake into adipocytes (fat cell assay, FFC); format: cell-based, Mouse; set-up: key to FFC: 0 is no effect; + is agonist; - is antagonist

Row | Compound | FFC (adipocytes) | other results
1 | CC(C)C[C@H](NC(=O)[C@H](C)NC(=O)[C@H](CO)NC(=O)[C@H](CCC(=O)O)NC(=O)[C@H](Cc1ccccc1)NC(=O)[C@H](Cc1c[nH]c2ccccc12)NC(=O)[C@H](CCC(=O)O)NC(=O)[C@H](Cc1ccc(O)cc1)NC(=O)[C@H](Cc1ccccc1)NC(=O)[C@@H](NC(=O)CNC(=O)CNC(=O)CNC(=O)[C@H](CCCNC(=N)N)NC(=O)[C@@H](N)CCCCN)[C@@H](C)O)C(=O)N[C@@H](CCCNC(=N)N)C(=O)N[C@@H](CCCCN)C(=O)N[C@@H](Cc1c[nH]cn1)C(=O)NCC(=O)N[C@@H](C)C(=O)NCC(=O)N[C@@H](CCCCN)C(=O)N[C@@H](CCCCNC(=O)CCCC[C@@H]1SC[C@@H]2NC(=O)N[C@@H]21)C(N)=O [Clone D110] (H-KRGGGTFYEWFESALRKHGAGKK(Biotin)-NH2) |  | Kd ([1]; read-out: Kd (µM) HIR): 0.84 µM
2 | CC(C)[C@H](NC(=O)[C@H](Cc1ccccc1)NC(=O)[C@H](Cc1c[nH]c2ccccc12)NC(=O)[C@H](CC(=O)O)NC(=O)[C@H](Cc1ccc(O)cc1)NC(=O)[C@H](Cc1ccccc1)NC(=O)[C@H](CC(N)=O)NC(=O)[C@H](CCC(=O)O)NC(=O)[C@H](Cc1c[nH]cn1)NC(=O)[C@@H](N)Cc1ccccc1)C(=O)N[C@@H](CCCNC(=N)N)C(=O)N[C@@H](CCC(N)=O)C(=O)N[C@H](C(=O)N[C@@H](CO)C(=O)N[C@@H](CCCCN)C(=O)N[C@@H](CCCCN)C(=O)N[C@@H](CNC(=O)CON=CCCCCC=NOCC(=O)NC[C@H](NC(=O)[C@H](CCCCN)NC(=O)[C@H](CCCCN)NC(=O)[C@H](CO)NC(=O)[C@@H](NC(=O)[C@H](CCC(N)=O)NC(=O)[C@H](CCCNC(=N)N)NC(=O)[C@@H](NC(=O)[C@H](Cc1ccccc1)NC(=O)[C@H](Cc1c[nH]c2ccccc12)NC(=O)[C@H](CC(=O)O)NC(=O)[C@H](Cc1ccc(O)cc1)NC(=O)[C@H](Cc1ccccc1)NC(=O)[C@H](CC(N)=O)NC(=O)[C@H](CCC(=O)O)NC(=O)[C@H](Cc1c[nH]cn1)NC(=O)[C@@H](N)Cc1ccccc1)C(C)C)C(C)C)C(N)=O)C(N)=O)C(C)C [Clone S169] |  | pKd ([1]; read-out: HIR affinity): 6.24
3 | CC(C)C[C@@H]1NC(=O)[C@H](CCC(=O)O)NC(=O)[C@@H](NC(=O)[C@H](CC(C)C)NC(=O)[C@@H](NC(=O)[C@H](CCCNC(=N)N)NC(=O)[C@H](CC(C)C)NC(=O)[C@@H](N)CC(=O)O)C(C)C)CSSC[C@@H](C(=O)N[C@@H](CO)C(=O)N[C@@H](CCC(=O)O)C(N)=O)NC(=O)[C@H](Cc2ccc(O)cc2)NC(=O)CNC(=O)[C@H](CC(C)C)NC(=O)[C@H](C(C)C)NC(=O)[C@H](Cc2ccc(O)cc2)NC(=O)[C@H](C)NC(=O)CNC(=O)CNC(=O)[C@H](Cc2ccccc2)NC1=O [Clone S281] (HELM PEPTIDE1{D.L.R.V.L.C.E.L.F.G.G.A.Y.V.L.G.Y.C.S.E.[am]}$PEPTIDE1,PEPTIDE1,6:R3-18:R3$$$V2.0; N-terminus assumed; bridges inferred) | 0 | 
4 | EFHENFYDWFVRQVSEE [Clone S115] | + | 
5 | FHENAYDWFVRQVSKK [Clone S219] | 0 | 
6 | FHENFADWFVRQVSKK [Clone S220] | 0 | 
7 | FHENFTDWAVRQVSKK [Clone S223] | 0 | 
8 | FHENFYDWFVRQVSK [Clone S158] | + | 
9 | FQSLLEELVWGAPLFRYGTG [Clone S224] | 0 | 
10 | GRVDWLQRNANFYDWFVA [Clone S250] | 0 | 
11 | GRVDWLQRNANFYDWFVAE [Clone S249] | 0 | 
12 | HDPFYSMMKSLLK [Clone S120] | 0 | 
13 | HETFYSMIRSLAK [Clone S117] | 0 | 
14 | HPPLSELKLFLIKK [Clone S124] | 0 | 
15 | HPSTNQMLMKLFK [Clone S123] | 0 | 
16 | HPTSKEIYAKLLK [Clone S122] | 0 | 
17 | IQGWEPFYGWFDDWAQMFEE-NH2 [Clone S264] | 0 | 
18 | NSFYEALRMLSSK [Clone S121] | 0 | 
19 | SLNFYDALQLLAKK [Clone S119] | 0 | 
20 | SSNFYQALMLLS [Clone S129] | 0 | 
